{
  "source": "paper PMC5394417",
  "about": "“Investigating the molecular mechanism of positive and negative allosteric modulators in the calcium-sensing receptor dimer” (Scientific Reports, 2017)",
  "molecular_target": "T1, HA-F821A CaSR mutant (Rattus norvegicus, UniProt P48442, F821A)",
  "T1 construct": "mGluR5 signal peptide (N); expressed in transfected cells; host or cells: HEK293T",
  "T1 sequence (P48442 20-1079 F821A)": "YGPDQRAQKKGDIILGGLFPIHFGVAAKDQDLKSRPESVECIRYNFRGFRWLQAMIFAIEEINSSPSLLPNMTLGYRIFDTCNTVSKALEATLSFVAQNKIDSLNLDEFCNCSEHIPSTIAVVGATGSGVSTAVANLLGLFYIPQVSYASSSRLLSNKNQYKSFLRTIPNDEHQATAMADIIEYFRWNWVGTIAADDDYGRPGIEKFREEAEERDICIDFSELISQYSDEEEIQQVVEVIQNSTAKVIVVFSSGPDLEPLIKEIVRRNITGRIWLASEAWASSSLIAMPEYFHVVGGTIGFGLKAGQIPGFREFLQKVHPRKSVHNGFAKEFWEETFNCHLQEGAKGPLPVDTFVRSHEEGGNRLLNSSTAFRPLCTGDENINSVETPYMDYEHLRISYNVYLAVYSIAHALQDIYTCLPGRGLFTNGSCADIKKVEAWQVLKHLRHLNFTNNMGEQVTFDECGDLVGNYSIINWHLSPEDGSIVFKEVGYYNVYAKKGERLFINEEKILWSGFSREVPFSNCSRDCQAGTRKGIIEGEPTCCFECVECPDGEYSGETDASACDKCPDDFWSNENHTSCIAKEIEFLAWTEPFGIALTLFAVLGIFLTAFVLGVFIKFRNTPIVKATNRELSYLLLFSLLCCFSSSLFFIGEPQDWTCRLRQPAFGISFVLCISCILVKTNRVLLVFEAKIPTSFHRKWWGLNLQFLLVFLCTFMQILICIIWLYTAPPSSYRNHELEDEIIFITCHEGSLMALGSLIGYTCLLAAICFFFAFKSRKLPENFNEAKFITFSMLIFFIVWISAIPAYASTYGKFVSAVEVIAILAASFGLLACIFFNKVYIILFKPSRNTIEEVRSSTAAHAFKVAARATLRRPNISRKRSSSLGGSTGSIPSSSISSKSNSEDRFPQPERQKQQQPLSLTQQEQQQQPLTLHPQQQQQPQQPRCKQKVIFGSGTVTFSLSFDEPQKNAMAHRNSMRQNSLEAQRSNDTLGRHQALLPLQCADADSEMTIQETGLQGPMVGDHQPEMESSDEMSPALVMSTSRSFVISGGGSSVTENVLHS",
  "assay": "IP-One assay, HEK293T transiently transfected",
  "format": "cell-based",
  "data": [
    {"smiles": "[Ca+2]", "note": "[Ca^2+]", "values": [
      {"measurement": "EC50", "setting": "Ca^2+ alone", "result": 2350, "unit": "µM"},
      {"measurement": "pEC50 ± S.E.M.", "setting": "Ca^2+ alone", "result": "2.63 ± 0.02"},
      {"measurement": "Max ± S.E.M.", "setting": "Ca^2+ alone, normalized to maximum response of WT CaSR", "result": "87 ± 4.3", "unit": "%"},
      {"measurement": "EC50", "setting": "Ca^2+ with 1 μM NPS R-568", "result": 1920, "unit": "µM"},
      {"measurement": "pEC50 ± S.E.M.", "setting": "Ca^2+ with 1 μM NPS R-568", "result": "2.72 ± 0.01"},
      {"measurement": "Max ± S.E.M.", "setting": "Ca^2+ with 1 μM NPS R-568, normalized to maximum response with Ca^2+ alone for the construct", "result": "110 ± 14", "unit": "%"},
      {"measurement": "EC50", "setting": "Ca^2+ with 5 μM NPS 2143", "result": 5720, "unit": "µM"},
      {"measurement": "pEC50 ± S.E.M.", "setting": "Ca^2+ with 5 μM NPS 2143", "result": "2.25 ± 0.05"},
      {"measurement": "Max ± S.E.M.", "setting": "Ca^2+ with 5 μM NPS 2143, normalized to maximum response with Ca^2+ alone for the construct", "result": "51 ± 8.0", "unit": "%"}
    ]}
  ]
}
